Measured values reported in patent publication US20220332710A1, “SOLID FORMS OF A GLYT1 INHIBITOR” (Boehringer Ingelheim International GmbH, priority 2019, published 2022).

Experiment: Water sorption isotherm (dynamic vapor sorption)
Format: physicochemical
Conditions: 25° C., maintained at 90% relative humidity for 6 hours under humid nitrogen purge
Experimental: FIG. 11 is a water sorption isotherm showing the water-uptake of Form II of Coumpound 1 and amorphous Coumpound 1 when stored at 25° C. at different relative humidities.
As discussed above, the invention relates to crystalline forms of Coumpound 1 described herein as Form I, Form II, or Form III; and mixtures of at least two of Form I, Form II, or Form III (“the crystalline compounds of the invention”). WO2013017657 makes no mention of any crystalline form of Compound, any method for preparing a crystalline form of Coumpound 1, or any of the properties of the crystalline forms of Coumpound 1 described herein. The compounds of the invention have advantageous properties (e.g., improved stability and reproducibility) as compared to the amorphous form of Coumpound 1 described in Example 1 herein and WO2013017657. Improvements over the amorphous form include, for example, lower hygroscopicity and decreased tendency to convert to a different solid form. For example, the water-uptake of amorphous Coumpound 1 at 25° C. is 1.4% when maintained at 90% relative humidity for 6 hours under humid nitrogen purge. […]
Water sorption isotherms are determined using a dynamic vapor sorption system (Advantage, DVS, London, UK). […]

Row | water-uptake | SMILES
1 | about 0.04% | CC(Oc1ccc(S(C)(=O)=O)cc1C(=O)N1CC2C[C@]2(c2cc(C(F)(F)F)on2)C1)C(F)(F)F (some centres unmarked) [Form II of Coumpound 1]
2 | 1.4% | CC(Oc1ccc(S(C)(=O)=O)cc1C(=O)N1CC2C[C@]2(c2cc(C(F)(F)F)on2)C1)C(F)(F)F (some centres unmarked) [amorphous Coumpound 1]
